Results reported in paper PMC8983860, “A Novel Small Molecular Inhibitor of DNMT1 Enhances the Antitumor Effect of Radiofrequency Ablation in Lung Squamous Cell Carcinoma Cells” (Frontiers in Pharmacology, 2022).

Assays:
[1] = target: DNMT-1 (Homo sapiens, UniProt P26358); assay: In vitro activity test on DNMT-1; format: biochemical; conditions: for IC50: in vitro activity on DNMT1, Table 1; for In vitro activity (IC50) compared to ZINC15602870: comparison in words
Protocol: AutoDock Vina was used to screen the 72,000 compounds using the ligands in the original protein as the docking template. […] Continuous fine screening was performed with AutoDock Vina to obtain the top 50 compounds which were then analyzed by cluster analysis. Next, the representative compounds with large structural differences were empirically selected. Finally, a total of 12 representative compounds were selected (see supporting document), purchased from Medrige or synthesized by ourselves.
The side chains of compounds 03 and 07 were then introduced onto position R2 of the new parent ring (Table 1). In vitro activity tests were then performed as previously described ([Datta et al., 2009]).

[2] = test system: Notch pathway; assay: Expression of Notch pathway-related factors (qPCR) and methylation of the miR-27-3p promoter (BSP-NGS) after iDNMT treatment; format: cell-based, human
Protocol: The genomic DNA samples from the clinical specimens, tumor tissues, and cultured cells were extracted and isolated using the DNeasy Blood & Tissue Kit (Cat No. 69504; QIAGEN, Hilden, Germany) and treated with the EpiTect Bisulfite Kit (Cat No. 59104; QIAGEN) according to the manufacturer’s instructions. Next, the polymerase chain reactions (PCRs) were performed using DNA samples and a high-fidelity polymerase, Platinum II Hot-Start PCR Master Mix (Cat No. 14000012; Thermo Fisher Scientific), to amplify the selected promoter region (chr19: 13836440-13838517, negative chain [-], the selected promoter region of has-pre-miR-27) of miR-27 with CpG islands (chr19: 13,835,599-13,835,325, negative chain [-]). […] Following PCR experiments, the products were directly sequenced by using Ion Torrent PGM, and the methylation rates were calculated as previously described ([Ma et al., 2020]; [Wang et al., 2021b]; [He et al., 2021]).
For quantitative PCR (qPCR) analysis, the total RNA was extracted from the clinical specimens, LSCC cells, or subcutaneous tumor tissues as described by Ma et al. (2020) before reverse transcription to generate cDNA. The expression of DNMT1, Notch-related factors, and has-pre-miR-27 was examined by real-time quantitative fluorescence PCR (RT-PCR/qPCR) ([Ma et al., 2016]; [Yang et al., 2020]; [Du et al., 2021]) with β-actin as the loading control. […]

[3] = test system: H226 LSCC cells; assay: Subcutaneous H226 LSCC tumors in nude mice, oral iDNMT with or without RFA; format: in vivo
Protocol: The antitumor efficacy of iDNMT, RFA, and iDNMT1 + RFA on LSCC tissues was examined in nude mice. Nude mice aged 5 weeks were obtained from the Si-Bei-Fu Corporation (Beijing, China), and they were fed under specific pathogen-free conditions. The H226 cells (approximately 5 × 10^6 cells/animal), which were transfected with plasmids, were subcutaneously injected into nude mice to generate tumor tissues ([Feng et al., 2019]; [Sun et al., 2019]). The dimensions of these tumors were measured using a Vernier caliper every 7 days. Tumor volumes were calculated according to the following formula: tumoral width × tumoral width × tumoral length/2 ([Feng et al., 2019]; [Sun et al., 2019]). For RFA treatment or RFA + iDNMT treatment, RFA of the LSCC subcutaneous tumors was performed using a thyroid-ablation needle (Cat No.: UniBlate 700-103587 17G, RITA Company, Crystal Lake, IL, United States) when the tumoral volume reached ∼500 mm^3. The conditions for RFA were as follows: 2 min RFA-duration with a series of different temperatures, 65, 60, or 55°C. In addition, iDNMT was administered orally at 10, 5, 2, or 1 mg/kg ([Xie et al., 2018a]; [Xie et al., 2018b]; [Zhou et al., 2021]). The formulation of iDNMT and the oral administration were performed as previously described ([Zou et al., 2021a]; [Zou et al., 2021b]; [Wang et al., 2021c]; [Jie et al., 2021]). Subcutaneous tumors were separated from the animals, and the weights of these tumors were measured using a precision-balance.

[4] = test system: H226 cells; assay: Subcellular fractionation and Western blotting of H226 cells; format: cell-based, human; conditions: immunoblotting
Protocol: The H226 cells were cultured in Dulbecco’s modified Eagle’s medium (DMEM) with 10% (v/v) fetal bovine serum (FBS). The cells were transfected with plasmids or treated with the appropriate concentration of iDNMT [low dose (0.1 μmol/L), medium dose (1 μmol/L), and high dose (10 μmol/L)]. The H226 cells were then harvested for subcellular fractionation assays as previously described. The H226 cells were split into the nuclear subfraction or the cytoplasmic subfraction ([Lu et al., 2013]; [Yang et al., 2013]; [Feng et al., 2018b]). NICD, PSEN-1, and DNMT1 expression levels were examined in the subfractions by immunoblotting using antibodies from Santa Cruz (United States) or Abcam (United Kingdom). We chose β-actin and lamin A as the cytoplasmic and nuclear loading controls or indicators, respectively ([Lu et al., 2013]; [Yang et al., 2013]; [Feng et al., 2018b]).
To further confirm the specificity of iDNMT on the Notch pathway, we analyzed the cytoplasm–nuclear subfraction using immunoblotting. […] The methylation rates of the miR-27-3p′s promoter region and expression level of DNMT-1 or miR-27-3p in cell samples of Figure 5B are shown in Supplementary Figure S1. Therefore, iDNMT represses PSEN-1 expression to inhibit cleavage of Notch, thus inhibiting NICD accumulation in H226 cells.

Chain of DNMT-1 (P26358 whole entry): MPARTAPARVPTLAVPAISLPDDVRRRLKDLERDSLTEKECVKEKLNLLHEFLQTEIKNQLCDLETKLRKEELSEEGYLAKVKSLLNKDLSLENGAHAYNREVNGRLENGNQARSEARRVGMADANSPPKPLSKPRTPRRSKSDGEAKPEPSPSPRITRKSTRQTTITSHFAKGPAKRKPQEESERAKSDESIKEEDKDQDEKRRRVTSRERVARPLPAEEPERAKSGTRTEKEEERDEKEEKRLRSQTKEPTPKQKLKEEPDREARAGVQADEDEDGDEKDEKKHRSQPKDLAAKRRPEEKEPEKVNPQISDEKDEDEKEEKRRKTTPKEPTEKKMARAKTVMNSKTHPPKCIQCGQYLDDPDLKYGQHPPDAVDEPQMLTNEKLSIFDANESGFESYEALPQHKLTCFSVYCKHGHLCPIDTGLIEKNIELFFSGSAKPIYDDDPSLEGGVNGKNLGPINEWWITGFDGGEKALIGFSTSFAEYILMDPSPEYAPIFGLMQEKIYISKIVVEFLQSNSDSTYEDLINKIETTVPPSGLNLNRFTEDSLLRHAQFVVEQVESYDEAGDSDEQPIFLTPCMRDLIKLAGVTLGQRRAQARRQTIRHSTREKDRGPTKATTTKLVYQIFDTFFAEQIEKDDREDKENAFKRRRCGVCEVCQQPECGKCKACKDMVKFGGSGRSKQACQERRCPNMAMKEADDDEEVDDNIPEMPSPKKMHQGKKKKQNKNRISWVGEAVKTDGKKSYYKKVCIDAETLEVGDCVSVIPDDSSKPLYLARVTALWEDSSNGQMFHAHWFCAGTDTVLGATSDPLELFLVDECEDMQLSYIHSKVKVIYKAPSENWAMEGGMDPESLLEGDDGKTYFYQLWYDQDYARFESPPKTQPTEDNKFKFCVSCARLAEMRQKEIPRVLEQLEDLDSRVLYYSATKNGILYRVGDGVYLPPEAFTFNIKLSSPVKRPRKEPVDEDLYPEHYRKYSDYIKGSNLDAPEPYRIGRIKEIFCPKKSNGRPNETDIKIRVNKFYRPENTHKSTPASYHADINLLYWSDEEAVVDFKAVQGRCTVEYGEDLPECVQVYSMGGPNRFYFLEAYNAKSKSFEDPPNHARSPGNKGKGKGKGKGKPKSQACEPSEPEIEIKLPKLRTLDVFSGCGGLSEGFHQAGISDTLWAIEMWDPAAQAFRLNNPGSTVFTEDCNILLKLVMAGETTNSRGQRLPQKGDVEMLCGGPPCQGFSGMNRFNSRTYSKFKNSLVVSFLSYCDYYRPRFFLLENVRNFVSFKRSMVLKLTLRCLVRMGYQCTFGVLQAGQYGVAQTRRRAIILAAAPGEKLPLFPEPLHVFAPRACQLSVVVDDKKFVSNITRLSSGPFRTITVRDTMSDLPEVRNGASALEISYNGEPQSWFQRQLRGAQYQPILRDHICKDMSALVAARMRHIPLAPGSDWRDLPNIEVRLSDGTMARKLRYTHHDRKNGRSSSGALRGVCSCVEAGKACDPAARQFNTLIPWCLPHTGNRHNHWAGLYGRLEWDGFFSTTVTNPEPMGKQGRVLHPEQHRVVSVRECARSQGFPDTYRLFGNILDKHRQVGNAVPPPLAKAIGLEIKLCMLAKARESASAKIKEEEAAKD

COc1cc(C(=O)Nc2ccc(C(C)=O)cc2)ccc1C [Compound 01, N-(4-acetylphenyl)-3-methoxy-4-methylbenzamide]
IC50 [1]: 20 µM

COc1cc(C(=O)Nc2ccc(C(=O)N3CCN(C(C)C)CC3)cc2)ccc1C [Compound 02]
In vitro activity (IC50) compared to ZINC15602870 [1]: improved IC50 values | IC50 [1]: 15 µM

COc1cc(C(=O)Nc2ccc(C(=O)N3CCN(C(C)=O)CC3)cc2)ccc1C [Compound 03]
In vitro activity (IC50) compared to ZINC15602870 [1]: improved IC50 values | IC50 [1]: 7 µM

COc1cc(C(=O)Nc2ccc(S(=O)(=O)NC(=O)c3ccccc3)cc2)ccc1C [Compound 04]
In vitro activity (IC50) compared to ZINC15602870 [1]: improved IC50 values | IC50 [1]: 13 µM

COC(=O)CCSc1n[nH]c(NC(=O)c2ccc(C)c(OC)c2)n1 [Compound 05]
IC50 [1]: 18 µM

COCCCSc1n[nH]c(NC(=O)c2ccc(C)c(OC)c2)n1 [Compound 06]
IC50 [1]: 38 µM

CCC(Sc1n[nH]c(NC(=O)c2ccc(C)c(OC)c2)n1)C(=O)OC (stereo not shown) [Compound 07]
IC50 [1]: 9 µM

COc1cc(C(=O)Nc2nc(SCC3OCCO3)n[nH]2)ccc1C [Compound 08]
IC50 [1]: 30 µM

CCOC(=O)CCCSc1n[nH]c(NC(=O)c2ccc(C)c(OC)c2)n1 [Compound 09]
IC50 [1]: 22 µM

COc1ccc(C(=O)Nc2ccc(C(=O)N3CCN(C(C)=O)CC3)cc2)cc1OC [Compound 10]
methylation of the miR-27-3p promoter region ([2]; Figure 5A): decreased methylation of the miR-27-3p promoter region | expression of PSEN-1 or downstream factors of the Notch pathway ([2]; N-cadherin, vimentin, survivin, cIAP-1, cIAP-2, Figure 5A): inhibit the expression of PSEN-1 or downstream factors of the Notch pathway | LSCC tumor volumes ([3]; 2 mg/kg iDNMT oral combined with 2 min RFA at 55°C): significantly induced shrinkage of LSCC tumor volumes | EMT process of LSCC cells in subcutaneous tissues ([3]; iDNMT with RFA 55°C for 2 min): inhibited the EMT process | miR-27-3p expression in tumor tissues ([3]; oral, 2 mg/kg, leads to inhibition of the Notch pathway): significantly upregulated miR-27-3p expression | subcutaneous growth of H226 cells (antitumor activity) ([3]; oral, iDNMT alone, 2 mg/kg): weak antitumor activity | subcutaneous growth of H226 cells ([3]; oral, iDNMT alone, 5 mg/kg): most significant inhibition | subcutaneous growth of H226 cells ([3]; oral, iDNMT alone, 10 mg/kg): most significant inhibition | IC50 [1]: 4.71 µM | DNMT-1 expression ([4]; Figure 5B): no effects on DNMT-1 expression | PSEN-1 expression ([4]; Figure 5B): inhibited PSEN-1 expression | accumulation of NICD in the nuclear subfraction ([4]; iDNMT low 0.1, medium 1, high 10 μmol/L, dose-dependent): reduced accumulation of NICD in the nuclear subfraction

CCC(Sc1n[nH]c(NC(=O)c2ccc(OC)c(OC)c2)n1)C(=O)OC (stereo not shown) [Compound 11]
IC50 [1]: 6 µM
